# Assay results reported in patent publication EP4696691A1, “TRICYCLIC COMPOUND, AND PREPARATION METHOD THEREFOR AND USE THEREOF” (Shanghai Huilun Pharmaceutical Co., Ltd., priority 2023, dated 2024).
# Where two headings read alike, the source gives them in different places.
# Columns and labels:
# [1] = biological target: T1, IRAK4-HiBiT fusion protein (Homo sapiens, UniProt Q9NWZ3); assay: Detection of HiBiT-IRAK4 proteolysis levels in K562 IRAK4-HiBiT cells (Nano-Glo HiBiT Lytic assay); assay type: cell-based
# T1 construct: K562 from ATCC
# T1 sequence (Q9NWZ3 1-460): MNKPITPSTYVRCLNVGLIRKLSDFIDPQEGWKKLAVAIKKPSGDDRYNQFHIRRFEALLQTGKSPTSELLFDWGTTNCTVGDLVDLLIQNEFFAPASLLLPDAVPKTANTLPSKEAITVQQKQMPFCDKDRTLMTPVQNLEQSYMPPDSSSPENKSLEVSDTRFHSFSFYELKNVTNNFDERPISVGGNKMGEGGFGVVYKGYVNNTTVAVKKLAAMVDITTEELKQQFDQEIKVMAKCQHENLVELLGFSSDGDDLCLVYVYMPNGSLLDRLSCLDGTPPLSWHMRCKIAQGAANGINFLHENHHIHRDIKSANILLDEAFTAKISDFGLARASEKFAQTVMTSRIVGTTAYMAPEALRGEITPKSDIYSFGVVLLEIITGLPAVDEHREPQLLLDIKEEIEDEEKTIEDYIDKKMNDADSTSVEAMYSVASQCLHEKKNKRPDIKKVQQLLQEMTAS
# Method: Test Example 1 Detection of HiBiT-IRAK4 proteolysis levels in K562 IRAK4-HiBiT cells co-incubated with compounds of the present application • Reagents, devices, and consumables in experiments: • Nano-Glo Lytic Detection Assay, purchased from Promega; • EnVision, purchased from PerkinElmer; • Name of cell line: K562 IRAK4-HiBiT stable transformation cell strain (capable of stably expressing IRAK4-HiBiT fusion protein), constructed by Shanghai Bioduro Biologics Co., Ltd., where a K562 cell strain was purchased from ATCC. The culture medium is IMDM+10% FBS+1% P/S (volume percentage, where FBS is fetal bovine serum and P/S is Penicillin-Streptomycin, a 1:1 mixture of penicillin and streptomycin antibiotic solution (10,000 units/mL)).
# Cell culture: K562 IRAK4-HiBiT cells were incubated at 37°C, and passaged every 2-3 d, with a seeding density of 200,000 cells/mL.
# IRAK4-HiBiT proteolysis experiment: • Step 1: Cell seeding and treatment of compound • 1. A 10 mM compound mother liquor was prepared using DMSO, and a compound solution with a working concentration of 1,000 times (the highest working concentration is 10 µM, diluted 3.162 times, with a total of 10 concentration gradients) was prepared using Bravo automatic liquid processing platform. • 2. 40 nL of a compound working solution was transferred to a 384 well plate, and an equal volume of DMSO was added to positive control wells. • 3. 20 µL of a culture solution was added per well and shaken for 10 min. • 4.20 µL of a K562 IRAK4-HiBiT cell suspension was added per well (6,000 cells/well), and an equal volume of culture medium was added to negative control wells. • 5. The well plate was rotated at 1,000 rpm for 1 min. • 6. The cells were incubated in a 5% CO2 incubator at 37°C for 2 h or 6 h. • Step 2: HiBiT Lytic experiment • 1. The well plate was placed at room temperature to equilibrate for 30 min. • 2. 20 µL of Nano-Glo HiBiT Lytic reagent (trade name: Nano-Glo® HiBiT Lytic Detection Reagent) and the well plate was kept in the dark. • 3. The well plate was placed on an orbital shaker at 300 rpm for 5 min. • 4. The cells were incubated at room temperature for 10 min. • 5. The luminous value was read by Envision. • 6. Data was calculated and processed. Degradation degree%=(negative control - experimental well)/(negative control - positive control) * 100%. Using XL-fit software, a degradation curve was obtained by fitting using a 4 Parameter Logistic Model, and the values of Relative DC50 (nM) and Absolute DC50 (nM) were obtained.
# [2] = tested on: LPS induced IL-6 release in human PBMC cells; assay: Inhibition of LPS induced IL-6 release in human PBMC cells (IL-6 HTRF assay); assay type: cell-based; details: 2 h compound pre-incubation, LPS 5 ng/mL for 4 h, IL-6 in supernatant
# Method: I. Recovery and seeding of PBMC, and treatment of compounds (human PBMC cells were purchased from Oricell, item number: Fpb003F)
# • 1. Preparation of compounds Sample dilutions of a series of concentrations were obtained by dilution in DMSO using Bravo, and then 80 nL was transferred into a cell plate using ECHO. The final concentration of DMSO in the cell culture medium is 0.1%. • 2. Frozen cells were quickly thawed in a 37°C water bath and stirred continuously. • 3. 25 mL of fresh preheated culture medium was added into a 50 mL centrifuge tube, and then the cells were added dropwise. Then the cells were centrifuged at 2,000 rpm for 10 min. • 4. […] The total number of cells required was calculated based on cell concentration to perform the assay. 7×10e4 cells were added per well (70 µL). • 6. The cell plate was placed and incubated in a 5% CO2 incubator at 37°C for 2 h.
# • 1. LPS: A stock solution (1 mg/mL) was diluted in dH2O, aliquoted, and stored at -80°C. • 2. 8-fold LPS was added per well (10 µl/well) (with a final concentration of 5 ng/mL). The cells were incubated in a 5% CO2 incubator at 37°C for 4 h. • 3. 70 µl of supernatant was collected per well using Bravo, and then IL-6 HTRF assay was performed. The supernatant may be stored at -80°C.
# 1. Preparation of standards and sample dilutions. 2. 16 µL of each sample was taken using Bravo and added to wells. Then 16 µL of each standard was taken and added to corresponding wells. 3.4 µL of a premixed IL6 antibody working solution was added to each of all wells. 4. The cell plate was sealed and incubated at room temperature for 2 h. 5.
# [3] = Pharmacokinetic behavior in mice (plasma concentration by LC-MS/MS); assay type: in vivo; details: male ICR mice; for Vd: read-out: Vss
# Method: (§1) Three healthy ICR mice (SPF grade, from Beijing Vital River Laboratory Animal Technology Co., Ltd.), male, weighing 18-25 g, were intravenously injected with a compound (1 mg/kg) at a volume of 5 mL/kg. The compound was prepared using 5% DMSO+10% Solutol+85% Saline (w/v), and the animals were not fasted before the experiment.
# as §1, with “were intragastrically administered” for “were intravenously injected with”, “compound (5” for “compound (1”, “of 10” for “of 5”
# Blood samples (about 0.05 mL each) were collected from the cheeks at 5 min, 15 min, 30 min, 1 h, 2 h, 4 h, 6 h, 8 h, and 24 h after intravenous administration, and at 5 min, 15 min, 30 min, 1 h, 2 h, 4 h, 6 h, 8 h, and 24 h after intragastrical administration, and anticoagulated with heparin sodium. Following collection, the blood samples were placed on ice and the plasma was centrifuged within 1 h (centrifugation conditions: 6,000 g, 3 min, 2 °C to 8°C). The concentration of the compounds in the plasma was determined by liquid chromatography tandem mass spectrometry. The plasma samples were stored in a -80°C freezer before analysis. With plasma concentration data at different time points, pharmacokinetic parameters were calculated by Phoenix WinNonlin8.2.0, and the results are shown in Table 4: Table 4
# [4] = 2 h incubation, read-out: Absolute DC50
# [5] = 2 h incubation, read-out: Relative DC50
# [6] = Intragastric administration (5 mg/kg), 5 mg/kg
# [7] = Intravenous injection (1 mg/kg), 1 mg/kg
# [8] = Intragastric administration (5 mg/kg)
# [9] = Intravenous injection (1 mg/kg)
# [10] = mouse, plasma, po, Intragastric administration (5 mg/kg)
# [11] = mouse, plasma, po, Intragastric administration (5 mg/kg), read-out: Cmax
# [12] = mouse, plasma, Intravenous injection (1 mg/kg)
# [13] = mouse, plasma, Intravenous injection (1 mg/kg), read-out: Cmax
SMILES,Dmax ([1]; 2 h incubation) [%],"DC50 [1, 4] [pM]","DC50 [1, 5] [pM]",IC50 [2] [pM],"AUClast [3, 8] [ng·h/mL]","Cmax [3, 8] [ng/mL]","F% [3, 8] [%]","T1/2 [3, 8] [h]","AUClast [3, 9] [ng·h/mL]","CL [3, 9] [mL/min/kg]","Cmax [3, 9] [ng/mL]","Vss [3, 9] [L/kg]",further results
"CC(C)(O)c1cc2nn([C@H]3CC[C@H](CCN4CCN5c6ccc(C7(C)CCC(=O)NC7=O)cc6OC[C@H]5C4)CC3)cc2cc1NC(=O)c1cccc(C(F)(F)F)n1 (single isomer, unassigned) [Compound 120-b-2]",93,23700,21400,750,,,,,,,,,"AUClast [3, 6]: 24277 ng·h/mL; Cmax [3, 6]: 1790 ng/mL; F% [3, 6]: 98.6%; T1/2 [3, 6]: 9.45 h; AUClast [3, 7]: 4925 ng·h/mL; CL [3, 7]: 3.03 mL/min/kg; Cmax [3, 7]: 725 ng/mL; Vss [3, 7]: 1.80 L/kg"
CC(C)(O)c1cc2nn([C@H]3CC[C@H](CCN4CCN5c6ccc(C7CCC(=O)NC7=O)cc6OC[C@@H]5C4)CC3)cc2cc1NC(=O)c1cccc(C(F)(F)F)n1 (stereo partly drawn) [Compound 1-a],90,420,580,910,19336,1067,31.7,17.5,8794,1.25,832,1.64,
CC(C)(O)c1cc2nn([C@H]3CC[C@H](CCN4CCN5c6ccc(C7CCC(=O)NC7=O)cc6OC[C@H]5C4)CC3)cc2cc1NC(=O)c1cccc(C(F)(F)F)n1 (stereo partly drawn) [Compound 1-b],88,540,710,860,44547,2623,79.5,15.3,11208,1.0,1083,1.23,
CC(C)(O)c1cc2nn([C@H]3CC[C@H](CCN4CCN5c6ccc(C7CCC(=O)NC7=O)cc6OCC5C4)CC3)cc2cc1NC(=O)c1cccc(C(F)(F)F)n1 (stereo partly drawn) [Compound 1],,,,1150,82491,5153,93.86,8.03,12937,0.905,1740,1.05,"Dmax ([1]; 6 h incubation): 91.1%; DC50 ([1]; read-out: Absolute DC50, 6 h incubation): 610 pM; DC50 ([1]; read-out: Relative DC50, 6 h incubation): 460 pM"
CC(C)(O)c1cc2nn([C@H]3CC[C@H](CCN4CCN5c6c(F)cc(C7CCC(=O)NC7=O)cc6OCC5C4)CC3)cc2cc1NC(=O)c1cccc(C(F)(F)F)n1 (stereo partly drawn) [Compound 4],90,9850,8710,4080,,,,,,,,,"AUC(0-t) [3, 10]: 34200 ng·h/mL; bioavailability [3, 10]: 60.1%; half-life [3, 10]: 14.8 h; Cmax [3, 11]: 2130 ng/mL; AUC(0-t) [3, 12]: 10500 ng·h/mL; clearance [3, 12]: 1.27 mL/min/kg; Cmax [3, 13]: 1320 ng/mL; Vd [3, 12]: 1.07 L/kg"
COc1cc2nn([C@H]3CC[C@H](CCN4CCC5(CC4)OCc4cc(C6CCC(=O)NC6=O)ccc45)CC3)cc2cc1NC(=O)c1cccc(C(F)(F)F)n1 (stereo partly drawn) [Compound 46],,,,13700,3815,207,68.7,27.3,932,6.80,128,21.4,"Dmax ([1]; 6 h incubation): 93.6%; DC50 ([1]; 6 h incubation, read-out: Absolute DC50): 920 pM; DC50 ([1]; 6 h incubation, read-out: Relative DC50): 790 pM"
CC(C)(O)c1cc2nn([C@H]3CC[C@H](CCN4CCC5(CC4)OC(=O)c4cc(C6CCC(=O)NC6=O)ccc45)CC3)cc2cc1NC(=O)c1cccc(C(F)(F)F)n1 (stereo partly drawn) [Compound 93],94,740,930,180,,,,,,,,,"AUC(0-t) [3, 10]: 9150 ng·h/mL; bioavailability [3, 10]: 29.5%; half-life [3, 10]: 4.19 h; Cmax [3, 11]: 844 ng/mL; AUC(0-t) [3, 12]: 6210 ng·h/mL; clearance [3, 12]: 2.98 mL/min/kg; Cmax [3, 13]: 783 ng/mL; Vd [3, 12]: 0.958 L/kg"
CC(C)Oc1cc2nc([C@H]3CC[C@H](CCN4CCN5c6ccc(C7CCC(=O)NC7=O)cc6OCC5C4)CC3)cn2cc1C(=O)Nc1cnn2cccnc12 (stereo partly drawn) [Compound 100],89,17600,17600,640,,,,,,,,,
CC(C)(O)c1cc2nn(C3CCC(CCN4CCN5c6c(F)cc(NC7CCC(=O)NC7=O)cc6OCC5C4)CC3)cc2cc1NC(=O)c1cccc(C(F)(F)F)n1 (stereo not drawn) [Compound 113],89,16800,16100,190,,,,,,,,,
CN1C(=O)C2(CCN(CC[C@H]3CC[C@H](n4cc5cc(NC(=O)c6cccc(C(F)(F)F)n6)c(C(C)(C)O)cc5n4)CC3)CC2)c2ccc(C3CCC(=O)NC3=O)cc21 (stereo partly drawn) [Compound 121],92,14000,10800,100,,,,,,,,,
